Counter-ions that a name gives are not always drawn.
Legend:
MOLM14 cells = assay: Proliferation assay (spheroid growth, 8 days), MOLM14; format: cell-based, human; conditions: MOLM14, 8 days; hydrochloride; read-out: spheroid assay_OneTime MOLM14 IC50;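 further: spheroid size read as confluence by live-cell imaging, compounds added at a range of concentrations with 0.3% DMSO, DMSO-treated wells = 0%, highest reference dose = low control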
hERG potassium channel = hERG potassium channel (Homo sapiens (Human), UniProt Q12809); assay: Effect on membrane potassium current IKr in hERG transfected CHO cells, Protocol 1 (QPatch); format: cell-based
hERG potassium channel, sequence (Q12809 whole entry): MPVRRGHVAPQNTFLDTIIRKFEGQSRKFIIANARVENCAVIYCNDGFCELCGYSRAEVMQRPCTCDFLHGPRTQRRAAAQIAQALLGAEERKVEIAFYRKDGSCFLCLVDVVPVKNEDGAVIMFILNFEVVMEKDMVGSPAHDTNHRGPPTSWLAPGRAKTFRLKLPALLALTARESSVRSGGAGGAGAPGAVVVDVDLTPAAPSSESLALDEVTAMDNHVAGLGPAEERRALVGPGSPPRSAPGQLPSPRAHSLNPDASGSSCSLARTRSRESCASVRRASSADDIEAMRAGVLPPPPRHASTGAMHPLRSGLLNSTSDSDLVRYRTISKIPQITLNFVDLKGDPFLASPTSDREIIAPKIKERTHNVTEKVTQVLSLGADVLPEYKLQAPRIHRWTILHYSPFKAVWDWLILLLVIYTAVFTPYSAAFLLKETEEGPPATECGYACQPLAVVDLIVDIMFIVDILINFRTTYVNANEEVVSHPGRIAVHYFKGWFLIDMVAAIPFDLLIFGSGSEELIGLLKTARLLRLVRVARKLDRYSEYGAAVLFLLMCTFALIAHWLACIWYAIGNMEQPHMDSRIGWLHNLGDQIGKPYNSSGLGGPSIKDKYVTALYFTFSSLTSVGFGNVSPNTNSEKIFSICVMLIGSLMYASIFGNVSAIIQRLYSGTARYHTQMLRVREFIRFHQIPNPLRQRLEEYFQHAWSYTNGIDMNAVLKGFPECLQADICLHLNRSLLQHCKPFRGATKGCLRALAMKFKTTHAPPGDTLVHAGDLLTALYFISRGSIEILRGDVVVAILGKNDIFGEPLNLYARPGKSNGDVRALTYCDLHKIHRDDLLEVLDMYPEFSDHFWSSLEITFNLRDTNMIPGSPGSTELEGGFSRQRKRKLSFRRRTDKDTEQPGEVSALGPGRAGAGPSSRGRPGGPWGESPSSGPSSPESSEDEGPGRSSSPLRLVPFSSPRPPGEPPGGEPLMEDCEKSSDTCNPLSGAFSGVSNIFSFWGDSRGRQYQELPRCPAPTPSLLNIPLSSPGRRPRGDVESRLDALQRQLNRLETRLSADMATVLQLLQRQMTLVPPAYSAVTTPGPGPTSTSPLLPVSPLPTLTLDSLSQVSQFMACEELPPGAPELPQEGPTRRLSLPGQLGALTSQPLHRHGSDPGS
Summary of the method: (§1)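 Whole-cell automated patch clamp on CHO cells stably expressing hERG, held at −80 mV; the value is the tail current at −40 mV after a 2 s step to +60 mV, at pH 7.4 bath and pH 7.2 pipette. After 0.3% DMSO control, compound was applied at 3×10^−7 M, 3×10^−6 M, 10^−5 M and 3×10^−5 M, 5 min each. IC50 comes from a non-linear least-squares fit of block versus vehicle.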

Cor.4U Cardiomyocytes = assay: Ca2+-fluorescence assay in human pluripotent stem cell-derived cardiomyocytes (CTCM human), Cor.4U Cardiomyocytes; format: cell-based; parameters: key: Green: No concern; Yellow: Low concern; Red: High concern; Black: Very high concern due to arrhythmic events; conditions: 30 min
Procedure: (§2) 7) Cardio-Electrophysiological Effects of the Testing Compounds in Synchronously Beating Human Pluripotent Stem Cell-Derived Cardiomyocytes (hSC-CMs) Using a Ca^2+-Fluorescence Assay (CTCM Human)
(§3) Compounds were tested in the 96-well plates
Compounds were tested at 0.1 μM, 0.2 μM, 0.5 μM, 1 μM, 2.5 μM and 5 μM (n=4 per dose) on Cor.4U 9-Cardiomyocytes or on iCell® Cardiomyocytes2 […]
(§4) Dimethylsulfoxide (DMSO). The solutions of the compound in DMSO or its solvent (final concentration of 0.1% DMSO; n=8)
(§5) Preparation of Test Article and Controls
(§6) Tested compounds were dissolved in DMSO at 1000-fold the intended concentrations. A compound “mother-plate” was made, containing the test compounds and positive and negative controls at 1000-fold the final concentrations. At the experiment day, these stock solutions were diluted with Tyrode (Sigma), supplemented with 10 mM HEPES (Gibco), to 2-fold the intended concentration (in round bottom compound plates). Final DMSO concentration in test solutions and vehicle control was 0.1%.
hSC-CMs (Cor.4U® Cardiomyocytes) were obtained from CDI (Ncardia, Germany). Cells are pre-plated and seeded in fibronectin-coated 96-well plates at a density suited to form a monolayer and maintained in culture in a stage incubator (37° C., 5% CO2), according to the instructions of the cell provider.
(§7) Before Start of Experiment
(§8) At least one hour before the start of the experiments the normal cell medium was replaced with Tyrode solution with Calcium dye (see below).
(§9) Cal 520 dye (AAT Bioquest) was dissolved in 11 ml of Tyrode supplemented with 10 mM HEPES and warmed up to 37° C. before adding to the cells.
(§10) 35 μl cell culture medium was removed from each well and replaced with 35 μl of pre-warmed Cal 520 dye solution and cell plate was incubated for 45 min at 37° C./5% CO2. Cells were incubated for 5 min at 37° C.
(§11) Spontaneous electrical activity is recorded, using Cal520™ (AAT Bioquest) calcium fluorescence-dye signaling. This dye integrates the total intracellular calcium activity over the whole well. A bottle of Cal520 dye (50 μg, MW: 1103/mol) is dissolved with 50 μl DMSO as a stock solution of 0.9 mM. 50 μL of the stock solution of the dye was added to 10 ml Tryodes solution to have dye concentration of 4.5 μM. Subsequently, 35 μl of this dye solution was added into each well, to have a final dye concentration of 1.58 μM. The current dye protocol on this CTCM human assay was established recently (Ivan Kopljar et al, Journal of Pharmacological and toxicological methods 2018. 91: 80-86; Lu et al., Tox Sci 2019. 170 (2): 345-356).
(§12) Fluorescent signals (Ca^2+ transient morphology) were measured using the Functional Drug Screen System (FDSS/μCell; Hamamatsu, Japan) and the recordings were subsequently analyzed off-line, using appropriate software e.g. Notocord.
(§13) The cell plate was loaded into the FDSS/μCell for a test run: Ca^2+ transients were measured for 4 minutes to check for synchronous beating of the cardiomyocytes in each well. All 96 wells were measured simultaneously (sampling interval: 0.06 s, short exposure time: 10 ms; excitation wavelength 480 nm; emission wavelength 540 nm; FDSS/μCell warmed to 37° C.).
(§14) During the compound addition step, 100 μl of the respective double-concentrated test solutions was pipetted into each well simultaneously.
(§15) Data were analyzed off-line using appropriate software e.g. Notocord-Hem (version 4.3).
The following parameters of the Ca^2′ transient morphology were measured: • beat rate (BR) • amplitude of the Ca^2+ transient (Amp), • CTD90: Ca^2+ transient duration at 90% (time to 90% of the initial base value).
The presence of various ‘arrhythmia-like’ activities were also noted during the experimental periods. […]

OCI-AML3 cells = assay: Proliferation assay (spheroid growth, 8 days), OCI-AML3; format: cell-based, human; conditions: OCI-AML3, 8 days, hydrochloride
Summary of the method: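 IC50 values derive from day-8 spheroid confluence, normalized between DMSO-treated wells and the highest dose of a reference compound, fitted with a variable slope. Cells grew 8 days at 37° C under a compound concentration series in 0.3% DMSO.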

[1] = molecular target: hERG potassium channel (IKr) (Homo sapiens (Human), UniProt Q12809); assay: Effect on membrane potassium current IKr in hERG transfected CHO cells, Protocol 1 (QPatch); format: cell-based; conditions: human, CHO cells stably expressing the hERG potassium channel, pH 7.4
hERG potassium channel (IKr), sequence (Q12809 whole entry): as above
Summary of the method: as §1

iCell Cardiomyocytes2 = assay: Ca2+-fluorescence assay in human pluripotent stem cell-derived cardiomyocytes (CTCM human), iCell Cardiomyocytes2; format: cell-based; parameters: key: Green: No concern; Yellow: Low concern; Red: High concern; Black: Very high concern due to arrhythmic events; conditions: 30 min; for Color @ 0.1 μM (hazard score): iCell Cardiomyocytes2, 0.1 μM; for Color @ 1 μM (hazard score): iCell Cardiomyocytes2, 1 μM
Procedure: as §2, §3
Compounds were tested at 0.1 μM, 0.2 μM, 0.5 μM, 1 μM, 2.5 μM and 5 μM (n=4 per dose) on Cor.4U 9-Cardiomyocytes or on iCell® Cardiomyocytes2
Alternatively, compounds were tested at 0.1 μM, 0.3 μM; 1 μM, 3 μM, 10 μM and 30 μM (n=4 per dose) mostly on iCell® Cardiomyocytes2
as §4, §5, §6
Second line hSC derived cardiomyocyte called iCell®, Cardiomyocytes2 were purchased from FUJIFILM Cellular Dynamics (USA). The experiments with test drugs are carried out 5 to 7 days after plating the cells onto the plate to have a living, beating monolayer of hiPSC-derived cardiomyocytes. The beating monolayer in 96-well-plates are normally taken from 2 Vials of frozen iCell) Cardiomyocytes2 (≈5 million cells/vial), which will be plated onto […] 96-well plates (≈50K/well).
as §7, §8, §9, §10, §11, §12, §13, §14, §15
The following parameters of the Ca^2′ transient morphology were measured: • beat rate (BR) • amplitude of the Ca^2+ transient (Amp), • CTD90: Ca^2+ transient duration at 90% (time to 90% of the initial base value). […]

OCI-AML3 tumors = assay: Efficacy study in disseminated OCI-AML3 model (survival); format: in vivo, mouse; conditions: disseminated OCI-AML3, SCID beige mice, vehicle 38.5 days

**Q.** Which results are given for `CCN(C(=O)c1cc(F)ccc1Oc1nncnc1N1CCC2(C1)CN([C@H](CCCNC)C(C)C)C2)C(C)C` [Compound 19, (R)-N-ethyl-5-fluoro-N-isopropyl-2-((5-(2-(2-methyl-6-(methylamino)hexan-3-yl)-2,6-diazaspiro[3.4]octan-6-yl)-1,2,4-triazin-6-yl)oxy)benzamide hydrochloride]?
**A.** IC50 (MOLM14 cells): 0.058 µM; IC50 (hERG potassium channel): > 30.2 µM; Color @ 0.1 μM (hazard score) (Cor.4U Cardiomyocytes; 0.1 μM): Green; Color @ 0.2 μM (hazard score) (Cor.4U Cardiomyocytes; 0.2 μM): Green; Color @ 0.5 μM (hazard score) (Cor.4U Cardiomyocytes; 0.5 μM): Green; Color @ 1 μM (hazard score) (Cor.4U Cardiomyocytes; 1 μM): Green; Color @ 2.5 μM (hazard score) (Cor.4U Cardiomyocytes; 2.5 μM): Green; Color @ 5 μM (hazard score) (Cor.4U Cardiomyocytes; 5 μM): Green; IC50 (OCI-AML3 cells): 0.16 µM

**Q.** Which IC50 at 5 min [1] does the source give for `CCN(C(=O)c1cc(F)ccc1Oc1nncnc1N1CCC2(C1)CN([C@H](CCCNCCOC)C(C)C)C2)C(C)C` [Compound 11, (R)-N-ethyl-5-fluoro-N-isopropyl-2-((5-(2-(6-((2-methoxyethyl)amino)-2-methylhexan-3-yl)-2,6-diazaspiro[3.4]octan-6-yl)-1,2,4-triazin-6-yl)oxy)benzamide] here?
**A.** > 30.2 µM

**Q.** What about the “Color @ 0.1 μM (hazard score)” value (iCell Cardiomyocytes2; range 0.1-30 μM) of the same compound?
**A.** Green

**Q.** And the “Color @ 0.3 μM (hazard score)” value (iCell Cardiomyocytes2; iCell Cardiomyocytes2, 0.3 μM)?
**A.** Green

**Q.** What about the “Color @ 1 μM (hazard score)” value (iCell Cardiomyocytes2; range 0.1-30 μM) of the same compound?
**A.** Green

**Q.** And the “Color @ 3 μM (hazard score)” value (iCell Cardiomyocytes2; iCell Cardiomyocytes2, 3 μM)?
**A.** Green

**Q.** And the “Color @ 10 μM (hazard score)” value (iCell Cardiomyocytes2; iCell Cardiomyocytes2, 10 μM)?
**A.** Green

**Q.** What about the “Color @ 30 μM (hazard score)” value (iCell Cardiomyocytes2; iCell Cardiomyocytes2, 30 μM) of the same compound?
**A.** Green

**Q.** With `CCN(C(=O)c1cc(F)ccc1Oc1nncnc1N1CCC2(C1)CN([C@H](CCCN(C)CCOC)C(C)C)C2)C(C)C` [Compound 70, (R)-N-ethyl-5-fluoro-N-isopropyl-2-((5-(2-(6-((2-methoxyethyl)(methyl)amino)-2-methylhexan-3-yl)-2,6-diazaspiro[3.4]octan-6-yl)-1,2,4-triazin-6-yl)oxy)benzamide oxalate] as the compound, how does the “Color @ 0.1 μM (hazard score)” value (iCell Cardiomyocytes2) read?
**A.** Green

**Q.** And the “Color @ 0.2 μM (hazard score)” value (iCell Cardiomyocytes2; iCell Cardiomyocytes2, 0.2 μM)?
**A.** Green

**Q.** And the “Color @ 0.5 μM (hazard score)” value (iCell Cardiomyocytes2; iCell Cardiomyocytes2, 0.5 μM)?
**A.** Green

**Q.** What about the “Color @ 1 μM (hazard score)” value (iCell Cardiomyocytes2) of the same compound?
**A.** Green

**Q.** And the “Color @ 2.5 μM (hazard score)” value (iCell Cardiomyocytes2; iCell Cardiomyocytes2, 2.5 μM)?
**A.** Green

**Q.** What about the “Color @ 5 μM (hazard score)” value (iCell Cardiomyocytes2; iCell Cardiomyocytes2, 5 μM) of the same compound?
**A.** Green

**Q.** What about the “median days of survival” value (OCI-AML3 tumors; 30 mg/kg PO daily for 28 days) of the same compound?
**A.** 75.5 days

**Q.** And the “median days of survival” value (OCI-AML3 tumors; 50 mg/kg PO daily for 28 days)?
**A.** 58.5 days

From patent publication US12473295B2, “Substituted straight chain spiro derivatives” (Janssen Pharmaceutica NV, priority 2019, dated 2025)
